Source: patent US20230339886A1 (University of Florida Research Foundation, Incorporated, priority 2020, published 2023)

Molecular target: T1, REV-ERBα LBD (human; residues 281-614 Δ324-422) (Homo sapiens, UniProt P20393, DEL324-422)
T1 construct: 6×Histag-REV-ERBα LBD (human; residues 281-614 Δ324-422); made in house; host or cells: Escherichia coli
Assay: TR-FRET corepressor interaction assay (REV-ERBα LBD, FITC-SMRT peptide)
Assay type: biochemical
Conditions: Table 2, read-out: REVERBα agonism (EC50 class, FRET assay)
Procedure, shortened: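 Compound serial dilutions (in DMSO, triplicate) incubated 2 h at 4 °C; Tb donor excited at 340 nm, emission read at 495 nm and FITC acceptor at 520 nm. TR-FRET ratio (520/495 nm) plotted against ligand concentration and fitted to a sigmoidal dose-response curve.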

T1 sequence (P20393 with tags, fused parts or gaps DEL324-422): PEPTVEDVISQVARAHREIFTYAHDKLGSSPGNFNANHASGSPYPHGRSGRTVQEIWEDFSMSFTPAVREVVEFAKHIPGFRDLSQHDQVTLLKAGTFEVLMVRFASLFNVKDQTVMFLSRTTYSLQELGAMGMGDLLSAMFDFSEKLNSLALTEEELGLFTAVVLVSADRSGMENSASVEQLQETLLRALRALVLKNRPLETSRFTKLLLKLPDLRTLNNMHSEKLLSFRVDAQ
T1 sequence (Q9Y618 2335-2356 partner limits assumed): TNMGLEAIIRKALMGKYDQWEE

Structure (SMILES)	EC50 [µM]
CC(C)Cn1cc([C@H](NS(=O)(=O)C2CC2)C(F)(F)F)c2ccc(-c3ccccc3Cl)cc21 [Example 311, (S)—N-(1-(6-(2-chlorophenyl)-1-isobutyl-1H-indol-3-yl)-2,2,2-trifluoroethyl)cyclopropanesulfonamide]	< 0.5
CC(C)Cn1cc([C@H](NS(=O)(=O)C2CC2)C(F)(F)F)c2cc(F)c(-c3ccccc3Cl)cc21 [Example 314, (S)—N-(1-(6-(2-chlorophenyl)-5-fluoro-1-isobutyl-1H-indol-3-yl)-2,2,2-trifluoroethyl)cyclopropanesulfonamide]	< 0.5
CC(C)Cn1cc([C@H](NS(=O)(=O)C2CC2)C(F)(F)F)c2cc(F)c(C3CC3)cc21 [Example 315, (S)—N-(1-(6-cyclopropyl-5-fluoro-1-isobutyl-1H-indol-3-yl)-2,2,2-trifluoroethyl)cyclopropanesulfonamide]	< 0.5
CC(C)(C)Cn1cc([C@H](NS(=O)(=O)C2CC2)C(F)(F)F)c2cc(F)c(-c3ccccc3C(F)(F)F)cc21 [Example 319, (S)—N-(2,2,2-trifluoro-1-(5-fluoro-1-neopentyl-6-(2-(trifluoromethyl)phenyl)-1H-indol-3-yl)ethyl)cyclopropanesulfonamide]	< 0.5
CC(C)Cn1cc([C@H](NS(=O)(=O)N(C)C)C(F)(F)F)c2cc(F)c(-c3ccccc3C(F)(F)F)cc21 [Example 320, dimethyl({[(1S)-2,2,2-trifluoro-1-[5-fluoro-1-(2-methylpropyl)-6-[2-(trifluoromethyl)phenyl]-1H-indol-3-yl]ethyl]sulfamoyl})amine]	< 0.5
CC(C)Cn1cc([C@H](NS(=O)(=O)C2CC2)C(F)(F)F)c2ccc(-c3ccccc3C(F)(F)F)cc21 [Example 325]	< 0.5
CC(C)Cn1cc([C@H](NS(=O)(=O)N(C)C)C(F)(F)F)c2cc(F)c(-c3ccccc3Cl)cc21 [Example 326, {[(1S)-1-[6-(2-chlorophenyl)-5-fluoro-1-(2-methylpropyl)-1H-indol-3-yl]-2,2,2-trifluoroethyl]sulfamoyl}dimethylamine]	< 0.5
CC(C)(C)Cn1cc([C@H](NS(=O)(=O)C2CC2)C(F)(F)F)c2ccc(-c3ccccc3Cl)cc21 [Example 332, (S)—N-(1-(6-(2-chlorophenyl)-1-neopentyl-1H-indol-3-yl)-2,2,2-trifluoroethyl)cyclopropanesulfonamide]	< 0.5
CC(C)c1ccc2c([C@H](NS(=O)(=O)C3CC3)C(F)(F)F)cn(CC(C)(C)C)c2c1 [Example 335, (S)—N-(2,2,2-trifluoro-1-(6-isopropyl-1-neopentyl-1H-indol-3-yl)ethyl)cyclopropanesulfonamide]	< 0.5
CC(C)c1cc2c(cc1F)c([C@H](NS(=O)(=O)C1CC1)C(F)(F)F)cn2CC(C)(C)C [Example 336, (S)—N-(2,2,2-trifluoro-1-(5-fluoro-6-isopropyl-1-neopentyl-1H-indol-3-yl)ethyl)cyclopropanesulfonamide]	0.5 to 3
CC(C)c1cc2c(cc1F)c([C@H](NS(=O)(=O)N(C)C)C(F)(F)F)cn2CC(C)(C)C [Example 337, {[(1S)-1-[1-(2,2-dimethylpropyl)-5-fluoro-6-(propan-2-yl)-1H-indol-3-yl]-2,2,2-trifluoroethyl]sulfamoyl}dimethylamine]	0.5 to 3
CN(C)S(=O)(=O)N[C@@H](c1cn(CC(C)(C)C)c2cc(-c3ccccc3Cl)ccc12)C(F)(F)F [Example 338, {[(1S)-1-[6-(2-chlorophenyl)-1-(2,2-dimethylpropyl)-1H-indol-3-yl]-2,2,2-trifluoroethyl]sulfamoyl}dimethylamine]	< 0.5
CC(C)Cn1cc([C@H](NS(=O)(=O)N(C)C)C(F)(F)F)c2ccc(C(C)C)cc21 [Example 339, dimethyl({[(1S)-2,2,2-trifluoro-1-[1-(2-methylpropyl)-6-(propan-2-yl)-1H-indol-3-yl]ethyl]sulfamoyl})amine]	< 0.5
CC(C)(C)Cn1cc([C@H](NS(=O)(=O)C2CC2)C(F)(F)F)c2ccc(Br)cc21 [Example 343, (S)—N-(1-(6-bromo-1-neopentyl-1H-indol-3-yl)-2,2,2-trifluoroethyl)cyclopropanesulfonamide]	< 0.5
CC(C)(C)Cn1cc([C@H](NS(=O)(=O)N2CCC2)C(F)(F)F)c2cc(F)c(-c3ccccc3C(F)(F)F)cc21 [Example 346, (S)—N-(2,2,2-trifluoro-1-(5-fluoro-1-neopentyl-6-(2-(trifluoromethyl)phenyl)-1H-indol-3-yl)ethyl)azetidine-1-sulfonamide]	< 0.5
CC(C)(C)Cn1cc([C@H](NS(=O)(=O)N2CCCC2)C(F)(F)F)c2cc(F)c(-c3ccccc3C(F)(F)F)cc21 [Example 347, (S)—N-(2,2,2-trifluoro-1-(5-fluoro-1-neopentyl-6-(2-(trifluoromethyl)phenyl)-1H-indol-3-yl)ethyl)pyrrolidine-1-sulfonamide]	< 0.5
CC(C)S(=O)(=O)N[C@@H](c1cn(CC(C)(C)C)c2cc(-c3ccccc3C(F)(F)F)c(F)cc12)C(F)(F)F [Example 348, (S)—N-(2,2,2-trifluoro-1-(5-fluoro-1-neopentyl-6-(2-(trifluoromethyl)phenyl)-1H-indol-3-yl)ethyl)propane-2-sulfonamide]	0.5 to 3

Results, then the compound that gave them:

EC50 [µM]	Structure (SMILES)
< 0.5	Cc1cc2c(cc1F)c([C@H](NS(=O)(=O)C1CC1)C(F)(F)F)cn2CC(C)C [Example 312, (S)—N-(2,2,2-trifluoro-1-(5-fluoro-1-isobutyl-6-methyl-1H-indol-3-yl)ethyl)cyclopropanesulfonamide]
< 0.5	CC(C)Cn1cc([C@H](NS(=O)(=O)C2CC2)C(F)(F)F)c2ccc(-c3ccc(F)cc3C(F)(F)F)cc21 [Example 324, (S)—N-(2,2,2-trifluoro-1-(6-(4-fluoro-2-(trifluoromethyl)phenyl)-1-isobutyl-1H-indol-3-yl)ethyl)cyclopropanesulfonamide]
< 0.5	CC(C)(C)Cn1cc([C@H](NS(=O)(=O)C2CC2)C(F)(F)F)c2cc(F)c(C3CC3)cc21 [Example 327, (S)—N-(1-(6-cyclopropyl-5-fluoro-1-neopentyl-1H-indol-3-yl)-2,2,2-trifluoroethyl)cyclopropanesulfonamide]
< 0.5	CN(C)S(=O)(=O)N[C@@H](c1cn(CC(C)(C)C)c2cc(-c3ccccc3Cl)c(F)cc12)C(F)(F)F [Example 330, {[(1S)-1-[6-(2-chlorophenyl)-1-(2,2-dimethylpropyl)-5-fluoro-1H-indol-3-yl]-2,2,2-trifluoroethyl]sulfamoyl}dimethylamine]
0.5 to 3	CC(C)Cn1cc([C@H](NS(=O)(=O)C2CC2)C(F)(F)F)c2cc(F)c(C(C)C)cc21 [Example 334, (S)—N-(2,2,2-trifluoro-1-(5-fluoro-1-isobutyl-6-isopropyl-1H-indol-3-yl)ethyl)cyclopropanesulfonamide]
< 0.5	CC(C)Cn1cc([C@H](NS(=O)(=O)C2CC2)C(F)(F)F)c2ccc(Cl)cc21 [Example 341, (S)—N-(1-(6-chloro-1-isobutyl-1H-indol-3-yl)-2,2,2-trifluoroethyl)cyclopropanesulfonamide]
< 0.5	O=S(=O)(N[C@@H](c1cn(CC2CC2)c2cc(-c3ccccc3C(F)(F)F)c(F)cc12)C(F)(F)F)C1CC1 [Example 349, (S)—N-(1-(1-(cyclopropylmethyl)-5-fluoro-6-(2-(trifluoromethyl)phenyl)-1H-indol-3-yl)-2,2,2-trifluoroethyl)cyclopropanesulfonamide]
